Structures can show the parent of a compound that is named as a salt. Values belong to the compound of their own block, whether it stands above or below them.
How the values were obtained:
[1] = system: pressor effects of 5-hydroxytryptamine; experiment: Pressor effects of 5-hydroxytryptamine in rats; format: in vivo, rat
Experimental: (§1) The compound of Example 2 was found in low concentrations to inhibit contractions of the guinea-pig isolated ileum and rat isolated stomach strip caused by histamine and 5-hydroxytryptamine respectively. […] Concomitantly, the depressor effects of histamine were blocked, as were the pressor effects of 5-hydroxytryptamine for over 30 minutes. The pressor effects of 5-hydroxytryptamine in anaesthetised and pithed rats were inhibited by intravenous doses of 0.3-1.0 mg/kg body weight. Slightly higher doses reduced the bradycardia and the depressor response (the Bezold-Jarisch reflex mediated by 5-HT3 receptors) to 5-hydroxytryptamine in anaesthetised rats. The drug inhibited oedema in the rat paw caused by intraplantar 5-hydroxytryptamine. […] In mice it inhibited diarrhoea caused by L-5-hydroxytryptophan. In guinea pigs, intravenous doses of 0.03 mg/kg and above reduced the bronchoconstrictor effects of histamine and 5-hydroxytryptamine.
(§2) In cats, the effects of the ganglion stimulant McNeil -A-343 and histamine were reduced. Following intravenous injection into guinea-pigs, […] reduced histamine and 5-hydroxytryptamine induced broncho-constriction. Concentrations of 1 μg/ml or greater relaxed the isolated rat uterus in vitro.
(§3) The compound of Example 4 when injected into rats at intravenous doses of 0.3 mg/kg or greater reduced the pressor effects of 5-hydroxytryptamine and also the depressor effects of histamine. In cats, the effect of histamine was reduced after these doses also.

[2] = system: diarrhoea caused by L-5-hydroxytryptophan; experiment: Diarrhoea caused by L-5-hydroxytryptophan in mice; format: in vivo, mouse
Experimental: as §1

[3] = system: bronchoconstrictor effects of histamine and 5-hydroxytryptamine; experiment: Histamine and 5-hydroxytryptamine induced bronchoconstriction in guinea pigs; format: in vivo, guinea pig; conditions: Cavia porcellus, intravenous, read-out: Intravenous dose reducing histamine and 5-hydroxytryptamine bronchoconstriction
Experimental: as §1, §2, §3
(§4) Thus doses of 1 mg/kg given intraperitoneally attenuated the facilitation of spinal reflex activity caused by p-chloroamphetamine, and also the facilitation of spinal reflexes induced by fenfluramine in spinal and decerebrate rats. […] The drug in doses of 10 and 20 mg/kg intraperitoneally and in doses of 20 mg/kg by mouth attenuated morphine-induced catalepsy. We conclude therefore that this drug is an orally active drug with central actions, particularly affecting serotonergic mechanisms, but has no effect in vitro (Table 1). […] Thus it was found after intravenous doses of 0.03 mg/kg to reduce histamine and 5-hydroxytryptamine bronchoconstriction in the guinea pig.

[4] = system: isolated guinea pig ileum (histamine-induced contractions); experiment: Block of histamine-induced contraction of the isolated guinea-pig ileum; conditions: for minimal effective concentration: Cavia porcellus, isolated guinea pig ileum, histamine 10^-7 M, read-out: Effect on Histamine: minimum concentration required to show activity; for Effect on Histamine: block of contractions of isolated guinea pig ileum induced by histamine at 10^-7 M
Experimental: as §1
(§5) Compounds according to formula I were tested for their ability to block contractions of the isolated guinea pig ileum induced by KCl, carbachol, or histamine at a concentration of 10^-7 M. Ileum preparations were prepared according to standard methodology. The concentrations shown are the minimum required to show activity.

[5] = system: depressor effects of histamine; experiment: Effects of histamine in cats; format: in vivo, cat; conditions: intravenous
Experimental: as §1, §2, §3

[6] = Penetration into the central nervous system; format: in vivo; conditions: for Ability to penetrate into the CNS: in vivo
[7] = system: pressor effects of 5-hydroxytryptamine; experiment: Pressor effects of 5-hydroxytryptamine in cats; format: in vivo, cat; conditions: intravenous 0.1 mg/kg or greater
Experimental: as §1

[8] = system: isolated guinea pig ileum (carbachol-induced contractions); experiment: Block of carbachol-induced contraction of the isolated guinea-pig ileum; conditions: block of contractions of isolated guinea pig ileum induced by carbachol
Experimental: as §5

conscious cats = experiment: Behavioural changes and acute toxicity in the cat; format: in vivo
[9] = system: rat paw oedema caused by 5-hydroxytryptamine; experiment: Oedema in the rat paw caused by intraplantar 5-hydroxytryptamine; format: in vivo
Experimental: as §1

[10] = system: central nervous system (morphine induced catalepsy); experiment: Morphine induced catalepsy in the rat; format: in vivo; conditions: for Action in morphine induced catalepsy test: rat, mianserin in low doses
Experimental: as §4

[11] = system: arterial blood pressure and heart rate; experiment: Arterial blood pressure, heart rate and pressor responses to noradrenaline, sympathetic nerve stimulation and tyramine after intravenous injection into rats; format: in vivo, rat; conditions: for minimal effective dose: intravenous
[12] = system: central nervous system (L-5-hydroxytryptophan-induced head twitch); experiment: L-5-hydroxytryptophan-induced head twitch in the mouse; format: in vivo; conditions: mianserin in low doses
[13] = system: arterial blood pressure and heart rate; experiment: Arterial blood pressure, heart rate and pressor responses to noradrenaline, sympathetic nerve stimulation and tyramine after intravenous injection into cats; format: in vivo, cat
[14] = system: central nervous system (spinal flexor reflex); experiment: Spinal flexor reflex in the rat; format: in vivo; conditions: mianserin in low doses
[15] = system: rat isolated stomach strip (5-hydroxytryptamine-induced contractions); experiment: Contractions of rat isolated stomach strip caused by 5-hydroxytryptamine
Experimental: as §1

[16] = system: 5-HT3 receptors (Bezold-Jarisch reflex); experiment: Bradycardia and depressor response (Bezold-Jarisch reflex) to 5-hydroxytryptamine in anaesthetised rats; format: in vivo, rat; conditions: doses slightly higher than 0.3-1.0 mg/kg i.v.
Experimental: as §1

[17] = system: depressor effects of histamine; experiment: Depressor effects of histamine in rats; format: in vivo, rat; conditions: intravenous 0.1 mg/kg or greater
Experimental: as §1, §3

[18] = system: isolated guinea pig ileum (KCl-induced contractions); experiment: Block of KCl-induced contraction of the isolated guinea-pig ileum; conditions: block of contractions of isolated guinea pig ileum induced by KCl
Experimental: as §5

isolated rat uterus = experiment: Isolated rat uterus in vitro; conditions: Rattus norvegicus, read-out: Concentration relaxing the isolated rat uterus
[19] = system: effects of the ganglion stimulant McNeil -A-343; experiment: Effects of the ganglion stimulant McNeil-A-343 in cats; format: in vivo, cat
Experimental: as §2

[20] = system: spinal reflex activity (serotonergic mechanisms); experiment: Facilitation of spinal reflexes by p-chloroamphetamine, fenfluramine or clonidine in spinal and decerebrate rats; format: in vivo, rat
Experimental: as §4

[21] = system: effects of histamine and 5-hydroxytryptamine on blood pressure and heart rate; experiment: Effects of histamine and 5-hydroxytryptamine on blood pressure and heart rate in the chloral-anaesthetized rat; format: in vivo
[22] = rats, intravenous 0.1 mg/kg or greater
[23] = intravenous 0.1 mg/kg or greater

SMILES: N=C(N)N1CCN2c3ccccc3Cc3ccccc3C2C1 (centres unmarked) [Example 2, 2-Carboxamidino-1,2,3,4,10,14b-hexahydrodibenzo [c,f]pyrazino[1,2-a]azepineHydrochloride]
Duration of block of the pressor effects of 5-hydroxytryptamine [1, 22]: over 30 minutes
Diarrhoea caused by L-5-hydroxytryptophan [2]: inhibited
minimal effective dose [3]: ≥ 0.03 mg/kg
minimal effective concentration [4]: 0.01 µM
Effect on Histamine [4]: ++
Nature of the antagonism to histamine ([4]; guinea-pig isolated ileum, relatively resistant to washing): persistent and non-competitive
Contractions of the guinea-pig isolated ileum caused by histamine ([4]; low concentrations): inhibit
Effects of histamine (depressor) in cats [5]: blocked
Penetration into the central nervous system ([6]; concluded from four CNS test situations): does not penetrate into the central nervous system
Duration of block of the pressor effects of 5-hydroxytryptamine [7]: over 30 minutes
Effect on Carbachol [8]: - (no effect)
Action on the central nervous system: behavioural changes in the cat (conscious cats; cat): failed to demonstrate any inhibitory or other actions
Overt behavioural changes or acute toxicity (conscious cats; conscious cats, relatively large subcutaneous doses): No overt behavioural changes or acute toxicity
Oedema in the rat paw caused by intraplantar 5-hydroxytryptamine ([9]; oral and subcutaneous): inhibited
Oral absorption indicated by ratio of oral to subcutaneous dose ([9]; rat paw oedema): relatively good oral absorption
Action in morphine induced catalepsy test [10]: failed to demonstrate any inhibitory or other actions
minimal effective dose ([11]; Rattus norvegicus, rats, read-out: Intravenous dose causing long-lasting rises in arterial blood pressure and heart rate): ≥ 0.1 mg/kg
Pressor responses of the indirectly acting sympathomimetic agent tyramine [11, 22]: blockade
Pressor responses to noradrenaline and sympathetic nerve stimulation [11, 22]: potentiation
Action in L-5-hydroxytryptophan-induced head twitch test [12]: failed to demonstrate any inhibitory or other actions
minimal effective dose ([13]; Felis catus, intravenous, read-out: Intravenous dose causing long-lasting rises in arterial blood pressure and heart rate): ≥ 0.1 mg/kg
Pressor responses of the indirectly acting sympathomimetic agent tyramine [13, 23]: blockade
Pressor responses to noradrenaline and sympathetic nerve stimulation [13, 23]: potentiation
Action in spinal flexor reflex test [14]: failed to demonstrate any inhibitory or other actions
Contractions of rat isolated stomach strip caused by 5-hydroxytryptamine ([15]; low concentrations): inhibit
Nature of the antagonism to 5-hydroxytryptamine ([15]; rat isolated stomach strip, relatively resistant to washing): persistent and non-competitive
Bradycardia and depressor response (Bezold-Jarisch reflex) to 5-hydroxytryptamine [16]: reduced
Depressor effects of histamine [17]: blocked

SMILES: c1ccc2c(c1)Cc1ccccc1N1CCN(C3=NCCN3)CC21 (centres unmarked) [Example 3, 2-(2-Imidazolino)-1,2,3,4,10,14b-hexahydrodibenzo [c,f]pyrazino[1,2-a]azepine p-toluenesulphonate]
minimal effective dose ([1]; rat, intravenous, read-out: Intravenous dose depressing/reducing the pressor responses to 5-hydroxytryptamine): ≥ 0.1 mg/kg
Effect on KCl [18]: - (no effect)
minimal effective dose [3]: 0.01 mg/kg
minimal effective concentration [4]: 0.01 µM
Effect on Histamine [4]: ++
Effects of histamine (depressor) in cats [5]: reduced
Effect on Carbachol [8]: - (no effect)
minimal effective concentration (isolated rat uterus): ≥ 1 µg/mL
minimal effective dose ([11]; rat, read-out: Intravenous dose causing rises in arterial blood pressure): ≥ 0.1 mg/kg
Effects of the ganglion stimulant McNeil -A-343 [19]: reduced

SMILES: NC(=O)N1CCN2c3ccccc3Cc3ccccc3C2C1 (centres unmarked) [Example 5, 2-Carboxamido-1,2,3,4,10,14b-hexahydrodibenzo [c,f]pyrazino[1,2-a]azepine]
Effect on KCl [18]: - (no effect)
minimal effective dose [3]: 0.03 mg/kg
minimal effective concentration [4]: 0.01 to 0.1 µM
Effect on Histamine [4]: ++
Facilitation of spinal reflex activity caused by p-chloroamphetamine ([20]; 1 mg/kg intraperitoneally): attenuated
Facilitation of spinal reflexes induced by fenfluramine ([20]; 1 mg/kg intraperitoneally, spinal and decerebrate rats): attenuated
Facilitation of spinal reflexes caused by clonidine ([20]; at these dose levels (1 mg/kg intraperitoneally)): did not antagonise
Effect on Carbachol [8]: - (no effect)
Morphine-induced catalepsy ([10]; 20 mg/kg by mouth): attenuated
Morphine-induced catalepsy ([10]; 10 and 20 mg/kg intraperitoneally): attenuated

SMILES: CCNC(=NC#N)N1CCN2c3ccccc3Cc3ccccc3C2C1 (centres unmarked) [Example 7, 2-(N-Cyano-N'-ethyl-carboxamidino)-1,2,3,4,10,14b-hexahydrodibenzo[c,f]pyrazino[1,2-a]azepine]
Effect on KCl [18]: - (no effect)
minimal effective concentration [4]: 0.01 to 0.1 µM
Effect on Histamine [4]: ++
Effect on Carbachol [8]: - (no effect)

SMILES: N=C(NCCOc1ccccc1)N1CCN2c3ccccc3Cc3ccccc3C2C1 (centres unmarked) [Example 9, 2-(N-2-Phenoxyethylcarboxamidino)-1,2,3,4,10,14b-hexahydrodibenzo[c,f]pyrazino[1,2-a]azepine hydrochloride]
Effect on KCl [18]: - (no effect)
minimal effective concentration [4]: 0.01 to 0.1 µM
Effect on Histamine [4]: ++
Effect on Carbachol [8]: - (no effect)

SMILES: CCNC(=O)N1CCN2c3ccccc3Cc3ccccc3C2C1 (centres unmarked) [Example 10, 2-(N-Ethylcarboxamido)-1,2,3,4,10,14b-hexahydrodibenzo[c,f]pyrazino[1,2-a]azepine]
Effect on KCl [18]: - (no effect)
minimal effective concentration [4]: 0.1 µM
Effect on Histamine [4]: + (block)
Effect on Carbachol [8]: - (no effect)

SMILES: CCNC(=N)N1CCN2c3ccccc3Cc3ccccc3C2C1 (centres unmarked) [Example 11, 2-(N-Ethylcarboxamidino)-1,2,3,4,10,14b-hexahydrodibenzo[c,f]pyrazino[1,2-a]azepine hydrochloride]
Effect on KCl [18]: - (no effect)
minimal effective concentration [4]: 0.01 to 0.1 µM
Effect on Histamine [4]: ++
Effect on Carbachol [8]: - (no effect)
Block of effect on heart rate of both histamine and 5-hydroxytryptamine [21]: not
Effect on blood pressure of both histamine and 5-hydroxytryptamine [21]: complete block

SMILES: CCNC(=S)N1CCN2c3ccccc3Cc3ccccc3C2C1 (centres unmarked) [Example 12, 2-(N-Ethylthiocarboxamido)-1,2,3,4,10,14b-hexahydrodibenzo[c,f]pyrazino[1,2-a]azepine]
Effect on KCl [18]: - (no effect)
minimal effective concentration [4]: 0.01 to 0.1 µM
Effect on Histamine [4]: ++
Effect on Carbachol [8]: - (no effect)

Ability to penetrate into the CNS [6]: able to penetrate into the CNS
SMILES: NC(=O)CN1CCN2c3ccccc3Cc3ccccc3C2C1 (centres unmarked) [Example 13, 2-(Carboxamidomethyl)-1,2,3,4,10,14b-hexahydrodibenzo [c,f]pyrazino[1,2-a]azepine hydrochloride]
Effect on KCl [18]: - (no effect)
minimal effective concentration [4]: 0.01 to 0.1 µM
Effect on Histamine [4]: ++
Effect on Carbachol [8]: - (no effect)

Ability to penetrate into the CNS [6]: able to penetrate into the CNS
SMILES: NC(=O)CCN1CCN2c3ccccc3Cc3ccccc3C2C1 (centres unmarked) [Example 14, 2-(2-Carboxamidoethyl)-1,2,3,4,10,14b-hexahydrodibenzo[c,f]pyrazino[1,2-a]azepine]
Effect on KCl [18]: - (no effect)
minimal effective concentration [4]: 0.01 to 0.1 µM
Effect on Histamine [4]: ++
Effect on Carbachol [8]: - (no effect)

SMILES: CN1CCN2c3ccccc3Cc3ccccc3C2C1 (centres unmarked) [mianserin, 1,2,3,4,10,14b-hexahydro-2-methyldibenzo [c,f]pyrazino[1,2-a]azepine, reference compound]
Action in morphine induced catalepsy test [10]: effective
Action in L-5-hydroxytryptophan-induced head twitch test [12]: effective
Action in spinal flexor reflex test [14]: effective

Source: US5049637A, “1,2,3,4,10,14b-hexahydrodibenzo[c,f]pyrazino-[1,2-a]azepino derivatives and 10-aza, 10-oxa and 10-thia analogues” (Monash University, priority 1987, dated 1991)
